Reference: patent US5292669A, “Agents for the detection of substrates with hydrolase activity” (Boehringer Mannheim GmbH, priority 1992, dated 1994)

Key:
[1] = system: esterase from hog's liver; experiment: spot test: hydrolysis of substrate on buffer-oxidation agent paper, visual colour evaluation; assay type: biochemical; design: key: +: coloration; ++: strong coloration; +++: strong and rapid coloration; settings: potassium ferricyanide, enzyme about 1000 U/ml., ambient temperature; for Coloration pH 6: pH 6.0 fleece; for Coloration pH 9: pH 9.0 fleece
Procedure: (§1) In a spot test, there was investigated the hydrolysis of various compounds by appropriate hydrolases (aryl sulphatase, acidic and alkaline phosphatase, esterase, acetyl-β-O-glucosamidase and lipase). The base thereby liberated was simultaneously oxidized by potassium ferricyanide to the colored material and the color formation evaluated visually.
(§2) The rate of hydrolysis was evaluated visually at pH 6.0, as well as at pH 9.0, by spotting a hydrolase solution on to a substrate-buffer-oxidation agent-paper. The enzyme concentration was about 1000 U/ml. and the test temperature was ambient temperature. The non-enzymatic hydrolysis with a 0.9% aqueous sodium chloride solution as sample was evaluated for the purpose of comparison.
(§3) Impregnation solution: 100 mmole/liter potassium dihydrogen phosphate 10 mmole/liter potassium ferricyanide 2% Pluronic® F 68
(§4) The pH value was adjusted to 6.0 with a 2N aqueous solution of potassium hydroxide.
(§5) Impregnation solution: 100 mmole/liter glycine 10 mmole/liter potassium ferricyanide 2% Pluronic® 68
(§6) The pH value was adjusted to 9.0 with a 2N aqueous solution of sodium hydroxide.
(§7) Impregnation: An 8×30 cm. paper fleece (Whatman 3M) was impregnated with 8 ml. of impregnation solution and dried for 30 minutes at 50° C. in a drying cabinet.
(§8) The so impregnated buffer-oxidation agent papers were cut up into 8×2 cm. strips and post-impregnated with substrate solution. Substrate solution/impregnation solution: 5 mg. of the substrate to be tested (or the free base) were dissolved or suspended in 1 ml. methanol and, in each case, 10 μl. thereof applied to the buffer-oxidation agent papers. The solvent was evaporated with a blow drier. On to this substrate oxidation agent surface were then dosed on the hydrolase solutions and evaluated. […]

[2] = system: lipase; experiment: as above; assay type: biochemical; design: key: +: coloration; ++: strong coloration; +++: strong and rapid coloration; settings: potassium ferricyanide, enzyme about 1000 U/ml., ambient temperature
Procedure: as §1, §2, §3, §4, §5, §6, §7, §8

[3] = system: alkaline phosphatase; experiment: as above; assay type: biochemical; design: key: +: coloration; ++: strong coloration; +++: strong and rapid coloration; settings: potassium ferricyanide, enzyme about 1000 U/ml., ambient temperature; for Coloration pH 9: pH 9.0 fleece; for Coloration pH 6: pH 6.0 fleece
Procedure: as §1, §2, §3, §4, §5, §6, §7, §8

[4] = system: N-acetyl-β-D-glucosaminidase; experiment: as above; assay type: biochemical; design: key to Coloration pH 6 / Coloration pH 9: +: coloration; ++: strong coloration; +++: strong and rapid coloration
Procedure: as §1, §2, §3, §4, §5, §6, §7, §8

[5] = target: T1, β-galactosidase labelled immune complex (Escherichia coli, UniProt P00722); experiment: thyroxine (T4) test strip: colour formation from galactosidase substrate; assay type: biochemical; settings: T4-containing sample, sodium perborate/horseradish peroxidase, after 10 minutes
Procedure: Fleece 14 is impregnated with a conjugate of β-galactosidase with an antibody against T4.
A piece of paper (Schleicher & Schull 3512) was activated with cyanogen bromide and T4 succinimide ester bound thereon.
d) Fleece 13 serves for the sample application.
For the production of the test carrier 11, the fleece are fixed to a base film 12 as shown in FIG. 2 of the accompanying drawings.
The sample was prepared analogously to Example 15.
The test strip 11 was placed with the end 17 in the solution. The T4-containing sample penetrates into the fleece 13. From there, it flows on into fleece 14 from where it dissolves off the β-galactosidase conjugate. […] The solution which now, besides this immune complex, also contains an excess of the β-galactosidase conjugate, penetrates into fleece 15. This excess is there bound to the paper via bound T4.
The solution which still contains the immune complex penetrates into fleece 16. The process according to the invention for the detection of the β-galactosidase labelled immune complex, which represents the substance with hydrolase activity, there takes place. The more of this complex and thus also the more of T4 was present in the solution, the more strongly has the fleece 16 become red colored after 10 minutes. In the case of the absence of T4, the fleece 16 remains white.

[6] = target: T1, β-galactosidase labelled immune complex; experiment: hCG test carrier: colour formation from galactosidase substrate; settings: hCG-containing sample, sodium perborate/horseradish peroxidase, pH 7, within 10 minutes

T1 sequence (P00722 2-1024, one chain of several): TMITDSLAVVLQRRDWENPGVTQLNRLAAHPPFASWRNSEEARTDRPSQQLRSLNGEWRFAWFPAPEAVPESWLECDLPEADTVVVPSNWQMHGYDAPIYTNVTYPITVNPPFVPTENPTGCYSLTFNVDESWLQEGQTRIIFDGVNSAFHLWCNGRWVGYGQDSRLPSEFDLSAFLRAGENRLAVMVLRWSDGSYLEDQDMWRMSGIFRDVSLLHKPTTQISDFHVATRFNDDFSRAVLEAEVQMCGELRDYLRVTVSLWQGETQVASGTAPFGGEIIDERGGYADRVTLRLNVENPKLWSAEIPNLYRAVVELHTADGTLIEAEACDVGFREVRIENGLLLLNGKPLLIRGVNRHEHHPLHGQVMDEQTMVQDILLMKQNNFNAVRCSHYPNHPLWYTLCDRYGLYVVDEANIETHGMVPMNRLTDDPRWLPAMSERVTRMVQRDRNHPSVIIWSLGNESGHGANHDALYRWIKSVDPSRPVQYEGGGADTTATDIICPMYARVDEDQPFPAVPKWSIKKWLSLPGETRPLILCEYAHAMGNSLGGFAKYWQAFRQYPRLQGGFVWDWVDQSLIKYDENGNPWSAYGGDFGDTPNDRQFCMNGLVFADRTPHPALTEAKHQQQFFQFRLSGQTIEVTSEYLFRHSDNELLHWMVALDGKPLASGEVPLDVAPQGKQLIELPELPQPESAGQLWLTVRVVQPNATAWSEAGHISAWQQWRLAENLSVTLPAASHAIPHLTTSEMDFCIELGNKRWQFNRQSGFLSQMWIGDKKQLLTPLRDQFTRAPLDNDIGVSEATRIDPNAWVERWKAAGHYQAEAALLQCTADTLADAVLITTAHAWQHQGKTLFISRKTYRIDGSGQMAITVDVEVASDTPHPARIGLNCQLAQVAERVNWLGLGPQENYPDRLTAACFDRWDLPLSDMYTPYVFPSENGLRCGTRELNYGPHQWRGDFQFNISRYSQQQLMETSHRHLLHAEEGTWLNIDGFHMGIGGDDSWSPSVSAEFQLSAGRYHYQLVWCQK

Coloration pH 6 [1] | Coloration pH 9 [1] | SMILES | Coloration pH 9 [3] | other results
+ | ++ | CCC(=O)Oc1ccc(-c2nc(-c3ccc(N(C)C)cc3)c(C)[nH]2)cc1OC [Example 5a, 4-[4-(4-Dimethylaminophenyl)-5-methyl-1H-imidazol-2-yl]-2-methoxyphenyl propanoate] | – | –
++ | ++ | CCCCC(=O)Oc1ccc(-c2nc(-c3ccc(N(C)C)cc3)c(C)[nH]2)cc1OC [Example 5c, 4-[4-(4-Dimethylaminophenyl)-5-methyl-1H-imidazol-2-yl]-2-methoxyphenyl pentanoate] | – | –
++ | +++ | CCCCCCCC(=O)Oc1ccc(-c2nc(-c3ccc(N(C)C)cc3)c(C)[nH]2)cc1OC [Example 5d, 4-[4-(4-Dimethylaminophenyl)-5-methyl-1H-imidazol-2yl]-2-methoxyphenyl octanoate] | – | –

The remaining lines, values behind:

SMILES | Coloration pH 6 [1] | Coloration pH 9 [1] | Coloration pH 9 [3] | other results
COc1cc(-c2nc(-c3ccc(N(C)C)cc3)c(C)[nH]2)ccc1OC(C)=O [Example 4, 4-[4-(4-Dimethylaminophenyl)-5-methyl-1H-imidazol-2-yl]-2-methoxyphenyl acetate] | ++ | +++ | – | –
COc1cc(-c2nc(-c3ccc(N(C)C)cc3)c(C)o2)ccc1OC(C)=O [Example 4a, 4-[4-(4-Dimethylaminophenyl)-5-methyloxazol-2-yl]-2-methoxyphenyl acetate] | +++ | +++ | – | –
COc1cc(-c2nc(-c3ccc(N(C)C)cc3)c(C)s2)cc(OC)c1OC(C)=O [Example 4b, 4-[4-(4-Dimethylaminophenyl)-5-methylthiazol-2-yl]-2,6-dimethoxyphenyl acetate] | + | ++ | – | –
COc1cc(-c2nc(-c3ccc(N(C)C)cc3)c(-c3ccc(N(C)C)cc3)[nH]2)cc(OC)c1OC(C)=O [Example 4d, 4-[4,5-Bis-(4-dimethylaminophenyl)-1H-imidazol-2-yl]-2,6-dimethoxyphenyl acetate] | ++ | ++ | – | –
CCCCCCCCCCCC(=O)Oc1ccc(-c2nc(-c3ccc(N(C)C)cc3)c(C)[nH]2)cc1OC [Example 5, 4-[4-(4-Dimethylaminophenyl)-5-methyl-1H-imidazol-2-yl]-2-methoxyphenyl dodecanoate] | + | ++ | – | –
CCCC(=O)Oc1ccc(-c2nc(-c3ccc(N(C)C)cc3)c(C)[nH]2)cc1OC [Example 5b, 4-[4-(4-Dimethylaminophenyl)-5-methyl-1H-imidazol-2-yl]-2-methoxyphenyl butanoate] | ++ | +++ | – | Coloration pH 6 ([2]; pH 6.0 fleece): ++; Coloration pH 9 ([2]; pH 9.0 fleece): +++
COc1cc(-c2nc(-c3ccc(N(C)C)cc3)c(C)[nH]2)ccc1OP(=O)(O)O [Example 6, 4-[4-(4-Dimethylaminophenyl)-5-methyl-1H-imidazol-2-yl]-2-methoxyphenyl dihydrogen phosphate] | – | – | ++ | –
COc1cc(-c2nc(-c3ccc(N(C)C)cc3)c(C)[nH]2)cc(OC)c1OP(=O)(O)O [Example 6a, 4-[4-(4-Dimethylaminophenyl)-5-methyl-1H-imidazol-2-yl]-2,6-dimethoxyphenyldihydrogen phosphate] | – | – | +++ | –
COc1cc(-c2nc(-c3ccc(N(C)C)cc3)c(-c3ccccc3)[nH]2)cc(OC)c1OP(=O)(O)O [Example 6b, 4-[4-(4-Dimethylaminophenyl)-5-phenyl-1H-imidazol-2-yl]-2,6-dimethoxyphenyldihydrogen phosphate] | – | – | +++ | Coloration pH 6 [3]: ++
COc1cc(-c2nc(-c3ccc(N(C)C)cc3)c(-c3ccc(N(C)C)cc3)[nH]2)cc(OC)c1OP(=O)(O)O [Example 6c, 4-[4,5-Bis-(4-dimethylaminophenyl)-1H-imidazol-2-yl]-2,6-dimethoxyphenyl dihydrogen phosphate] | – | – | ++ | Coloration pH 6 [3]: +
COc1cc(-c2nc(-c3ccc(N(C)C)cc3)c(C)o2)ccc1OP(=O)(O)O [Example 7, 4-[4-(4-Dimethylaminophenyl)-5-methyl-oxazol-2-yl]-2-methoxyphenyl dihydrogen phosphate] | – | – | ++ | Coloration pH 6 [3]: +
COc1cc(-c2nc(-c3ccc(N(C)C)cc3)c(-c3ccc(N(C)C)cc3)o2)cc(OC)c1OP(=O)(O)O [Example 7a, 4-[4,5-Bis-(4-dimethylaminophenyl)-oxazol-2-yl]-2,6-dimethoxyphenyl dihydrogen phosphate] | – | – | +++ | Coloration pH 6 [3]: ++
COc1cc(-c2nc(-c3ccc(N(C)C)cc3)c(C)[nH]2)ccc1O[C@@H]1O[C@H](CO)[C@@H](O)[C@H](O)[C@H]1NC(C)=O [Example 8, {4-[4-(4-Dimethylaminophenyl)-5-methyl-1H-imidazol-2-yl]-2-methoxyphenyl}-2-acetamido-2-deoxy-ε-D-glucopyranoside] | – | – | – | suitability as substrate (strong blue coloration) ([4]; at pH 6 and pH 9): very good substrate; Coloration pH 6 ([4]; pH 6.0 fleece, potassium ferricyanide, enzyme about 1000 U/ml., ambient temperature, visual): +++; Coloration pH 9 ([4]; pH 9.0 fleece, potassium ferricyanide, enzyme about 1000 U/ml., ambient temperature, visual): +++
COc1ccc(-c2nc(-c3ccc(O[C@@H]4O[C@H](CO)[C@H](O)[C@H](O)[C@H]4O)c(OC)c3)[nH]c2-c2ccc(OC)cc2)cc1 [Example 12, 2-(4-β-D-Galactopyranosyloxy-3-methoxyphenyl)-4,5-bis-(4-methoxyphenyl)-I,3-imidazole] | – | – | – | colour of fleece 16 [5]: red colored; colour formed in fleece 6 [6]: red color
